Test results: patent publication US20220031684A1, “PROPHYLACTIC EFFICACY OF SEROTONIN 4 RECEPTOR AGONISTS AGAINST STRESS” (THE TRUSTEES OF COLUMBIA UNIVERSITY IN THE CITY OF NEW YORK, priority 2019, published 2022)
Counter-ions that a name gives are not always drawn.

What was measured:
129S6/SvEv mice [1] = test: 3-shock contextual fear conditioning (CFC); format: in vivo
Procedure: (§1) This chronic CORT elevation dysregulates the hypothalamic-pituitary-adrenal axis (HPA) in a manner similar to that observed in clinical depression. The dose and duration of CORT treatment was selected based on previous studies. CORT (35 μg/ml, equivalent to about 5 mg/kg/day) dissolved in 0.45% hydroxypropyl-o-cyclodextrin (0-CD) or vehicle (VEH) (0.45% j-CD) was available ad libitum in the drinking water in opaque bottles to protect it from light. VEH- and CORT-treated water was changed every 3 days to prevent possible degradation. Contextual Fear Conditioning (CFC): A 3-shock CFC procedure was administered as previously published. Briefly, mice were placed into context A and administered 3 2-s shocks (0.75 mA) at 180 s, 240 s or 300 s following placement into context A. Mice were removed from the context 15 s following the termination of shock (at 317 s). For context retrieval, mice were placed back into context A for 300 s. Electrophysiology: Electrophysiology was conducted as previously described. Statistical Analysis: Results from data analyses are expressed as means±SEM. Alpha was set to 0.05 for all analyses. Data were analyzed using GraphPad Prism v7.0 or v8.0. For all experiments, unless otherwise noted, one- or two-way ANOVAs with repeated-measures were applied to the data as appropriate. Significant main effects and/or interactions were followed by Fisher's PLSD post hoc analysis or unpaired t-tests. Drugs: All drugs were prepared in physiological saline and all injections were administered intraperitoneally (i.p.) in volumes of 0.1 cc per […] body weight unless otherwise noted. Fluoxetine hydrochloride (Flx): Flx (BioTrend Chemicals AG, BG197, Zurich, Germany) was administered in the drinking water (18 mg/kg/day) for 3 weeks before the start of CORT. […] (R,S)-ketamine (K): (R,S)-ketamine (Ketaset III, Ketamine HCl injection, Fort Dodge Animal Health, Fort Dodge, Iowa) was administered in a single dose at 30 mg/kg of body weight 1 week before the start of CFC. […] PF-04995274: PF-04995274 (Sigma, Catalog No. 1331782-27-4, St. Louis, Mo.) was administered a single dose at 3 or 10 mg/kg of body weight 1 week before the start of CFC. PF-04995274 was dissolved in saline using an ultrasonic homogenizer (BioLogics, Model 3000, Manassas, Va.). Osmotic minipump implantation: ALZET osmotic minipumps (Model 2004, […], 28 days) were implanted subcutaneously under isoflurane anesthesia as previously described [S2]. Osmotic minipumps were rotated under the skin two to three times per week. Behavioral Assays: All experiments were approved by the Institutional Animal Care and Use Committee (IACUC) at the New York Psychiatric Institute (NYSPI). Elevated Plus Maze (EPM): Testing was performed as previously described [S3]. Briefly, the maze is a plus-cross-shaped apparatus consisting of four arms, two open and two enclosed by walls, linked by a central platform at a height of 50 cm from the floor. Mice were individually placed in the center of the maze facing an open arm and were allowed to explore the maze for 5 min. The time spent in and the number of entries into the open arms was used as an anxiety index. Videos were scored using ANY-maze behavior tracking software (Stoelting, Wood Dale, Ill.). Novelty-Suppressed Feeding: The NSF is a conflict test that elicits competing motivations: the drive to eat and the fear of venturing into the center of a brightly lit arena. The latency to feed is used as an index of anxiety-like behavior, because classical anxiolytic drugs decrease this measure. The NSF test was carried out during an 8 min period as previously described [S3]. Briefly, the testing apparatus consisted of a plastic box (50×50×20 cm), the floor of which was covered with approximately 2 cm of bedding. For 129S6/SvEv experiments, mice were food restricted for 12 h. For the C57BL/6N experiments, mice were food restricted for 24 h. […]

129S6/SvEv mice [2] = test: Forced swim test (FST) after CFC; format: in vivo
Procedure: as §1

CA3 pyramidal cells = test: Whole-cell voltage clamp recordings of spontaneous EPSCs in CA3 slices; format: cell-based, mice; details: (R,S)-ketamine 30 mg/kg or prucalopride 3 mg/kg injected 1 week before slicing
Procedure: as §1

5-HT4R = details: cited from earlier work
[3] = molecular target: hERG (human Ether-a-go-go Related Gene) channels (Homo sapiens, UniProt Q12809); details: cited from earlier work
[4] = FIG. 4 cohort, Male, FIG. 4C, RMANOVA, Fisher's LSD
[5] = FIG. 4 cohort, Male, FIG. 4D, ANOVA, Fisher's LSD
[6] = FIG. 4 cohort, Male, FIG. 4F, RMANOVA, Fisher's LSD
[7] = FIG. 4 cohort, Male, FIG. 4G, ANOVA, Fisher's LSD

hERG (human Ether-a-go-go Related Gene) channels, sequence (Q12809 whole entry): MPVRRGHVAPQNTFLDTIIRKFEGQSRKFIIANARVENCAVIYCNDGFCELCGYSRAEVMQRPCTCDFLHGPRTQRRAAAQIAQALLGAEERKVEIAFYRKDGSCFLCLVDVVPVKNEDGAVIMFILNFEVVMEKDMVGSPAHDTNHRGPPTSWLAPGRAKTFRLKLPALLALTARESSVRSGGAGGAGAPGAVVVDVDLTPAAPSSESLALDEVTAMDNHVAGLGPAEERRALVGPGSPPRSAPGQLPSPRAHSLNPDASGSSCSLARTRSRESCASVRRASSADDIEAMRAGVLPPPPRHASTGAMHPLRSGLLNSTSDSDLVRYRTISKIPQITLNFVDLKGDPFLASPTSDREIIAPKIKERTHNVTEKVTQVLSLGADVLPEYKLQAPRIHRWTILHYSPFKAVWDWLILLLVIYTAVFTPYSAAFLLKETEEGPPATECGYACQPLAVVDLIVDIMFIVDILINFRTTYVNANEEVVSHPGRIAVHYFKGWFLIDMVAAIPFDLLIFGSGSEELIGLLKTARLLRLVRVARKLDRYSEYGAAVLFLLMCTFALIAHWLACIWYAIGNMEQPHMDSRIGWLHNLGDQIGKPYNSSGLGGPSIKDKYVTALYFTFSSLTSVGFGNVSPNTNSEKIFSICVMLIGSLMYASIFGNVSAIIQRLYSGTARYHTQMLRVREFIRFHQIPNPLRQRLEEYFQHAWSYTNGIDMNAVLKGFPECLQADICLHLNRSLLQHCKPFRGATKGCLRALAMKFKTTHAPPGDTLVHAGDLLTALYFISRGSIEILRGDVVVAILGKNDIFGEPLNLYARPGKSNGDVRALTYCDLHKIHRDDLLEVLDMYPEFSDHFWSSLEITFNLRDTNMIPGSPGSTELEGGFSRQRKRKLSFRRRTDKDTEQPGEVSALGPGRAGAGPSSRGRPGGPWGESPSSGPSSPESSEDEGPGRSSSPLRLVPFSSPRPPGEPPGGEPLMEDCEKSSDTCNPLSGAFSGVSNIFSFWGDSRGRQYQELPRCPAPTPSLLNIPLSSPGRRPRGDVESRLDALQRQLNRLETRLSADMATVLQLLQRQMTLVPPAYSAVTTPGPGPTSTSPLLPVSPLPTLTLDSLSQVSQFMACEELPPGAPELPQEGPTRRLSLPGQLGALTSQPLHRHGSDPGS

COCCCN1CCC(NC(=O)c2cc(Cl)c(N)c3c2OCC3)CC1 [Prucalopride, 4-amino-5-chloro-2,3-dihydro-N-[1-3-methoxypropyl)-4-piperidinyl]-7-benzofuran carboxamide monohydrochloride]
p, CFC Re-exposure Freezing (%), Prucalopride (3 mg/kg) vs. PF04995274 (3 mg/kg) (129S6/SvEv mice [1]; [4]): 0.0014
p, CFC Re-exposure Freezing (%), Prucalopride (3 mg/kg) vs. PF04995274 (10 mg/kg) (129S6/SvEv mice [1]; [4]): 0.2229
p, CFC Re-exposure Freezing (%), Prucalopride (3 mg/kg) vs. Prucalopride (10 mg/kg) (129S6/SvEv mice [1]; [4]): 0.0004
p, CFC Re-exposure Freezing (%), Prucalopride (10 mg/kg) vs. PF04995274 (3 mg/kg) (129S6/SvEv mice [1]; [4]): 0.7981
p, CFC Re-exposure Freezing (%), Prucalopride (10 mg/kg) vs. PF04995274 (10 mg/kg) (129S6/SvEv mice [1]; [4]): 0.0568
p, CFC Re-exposure Freezing (%), Saline vs. Prucalopride (3 mg/kg) (129S6/SvEv mice [1]; [4]): 0.0004
p, CFC Re-exposure Freezing (%), Saline vs. Prucalopride (10 mg/kg) (129S6/SvEv mice [1]; [4]): 0.4723
p, CFC Re-exposure, Prucalopride (3 mg/kg) vs. PF04995274 (3 mg/kg) (129S6/SvEv mice [1]; [5]): 0.0014
p, CFC Re-exposure, Prucalopride (3 mg/kg) vs. PF04995274 (10 mg/kg) (129S6/SvEv mice [1]; [5]): 0.2229
p, CFC Re-exposure, Prucalopride (3 mg/kg) vs. Prucalopride (10 mg/kg) (129S6/SvEv mice [1]; [5]): 0.0004
p, CFC Re-exposure, Prucalopride (10 mg/kg) vs. PF04995274 (3 mg/kg) (129S6/SvEv mice [1]; [5]): 0.7981
p, CFC Re-exposure, Prucalopride (10 mg/kg) vs. PF04995274 (10 mg/kg) (129S6/SvEv mice [1]; [5]): 0.0568
p, CFC Re-exposure, Saline vs. Prucalopride (3 mg/kg) (129S6/SvEv mice [1]; [5]): 0.0004
p, CFC Re-exposure, Saline vs. Prucalopride (10 mg/kg) (129S6/SvEv mice [1]; [5]): 0.4723
freezing during CFC training (129S6/SvEv mice [1]; male 129S6/SvEv, (R,S)-ketamine 30, prucalopride 3 or 10, PF-04995274 3 or 10 mg/kg, 1 week before CFC, vs saline): comparable levels of freezing
freezing at re-exposure to the training context (learned fear) vs saline (129S6/SvEv mice [1]; male 129S6/SvEv, single i.p. injection 1 week before CFC, re-exposure 5 days later, 3 mg/kg): attenuated learned fear
p, FST Day 2 Immobility Time (sec), Prucalopride (3 mg/kg) vs. PF04995274 (3 mg/kg) (129S6/SvEv mice [2]; [6]): 0.2475
p, FST Day 2 Immobility Time (sec), Prucalopride (3 mg/kg) vs. PF04995274 (10 mg/kg) (129S6/SvEv mice [2]; [6]): 0.4224
p, FST Day 2 Immobility Time (sec), Prucalopride (3 mg/kg) vs. Prucalopride (10 mg/kg) (129S6/SvEv mice [2]; [6]): 0.0568
p, FST Day 2 Immobility Time (sec), Prucalopride (10 mg/kg) vs. PF04995274 (3 mg/kg) (129S6/SvEv mice [2]; [6]): 0.6674
p, FST Day 2 Immobility Time (sec), Prucalopride (10 mg/kg) vs. PF04995274 (10 mg/kg) (129S6/SvEv mice [2]; [6]): 0.0209
p, FST Day 2 Immobility Time (sec), Saline vs. Prucalopride (3 mg/kg) (129S6/SvEv mice [2]; [6]): 0.0052
p, FST Day 2 Immobility Time (sec), Saline vs. Prucalopride (10 mg/kg) (129S6/SvEv mice [2]; [6]): 0.1772
p, FST Day 2 Immobility Time (min 3-6) (sec), Prucalopride (3 mg/kg) vs. PF04995274 (3 mg/kg) (129S6/SvEv mice [2]; [7]): 0.4089
p, FST Day 2 Immobility Time (min 3-6) (sec), Prucalopride (3 mg/kg) vs. PF04995274 (10 mg/kg) (129S6/SvEv mice [2]; [7]): 0.3387
p, FST Day 2 Immobility Time (min 3-6) (sec), Prucalopride (3 mg/kg) vs. Prucalopride (10 mg/kg) (129S6/SvEv mice [2]; [7]): 0.0622
p, FST Day 2 Immobility Time (min 3-6) (sec), Prucalopride (10 mg/kg) vs. PF04995274 (3 mg/kg) (129S6/SvEv mice [2]; [7]): 0.4653
p, FST Day 2 Immobility Time (min 3-6) (sec), Saline vs. Prucalopride (3 mg/kg) (129S6/SvEv mice [2]; [7]): 0.0093
p, FST Day 2 Immobility Time (min 3-6) (sec), Saline vs. Prucalopride (10 mg/kg) (129S6/SvEv mice [2]; [7]): 0.2443
p, FST Day 2 Immobility Time (min 3-6) (sec), Prucalopride (10 mg/kg) vs. PF04995274 (129S6/SvEv mice [2]; FIG. 4 cohort, Male, FIG. 4G, ANOVA, Fisher's LSD, PF04995274 dose stands below the shown rows): 0.0156
immobility, FST day 1 (129S6/SvEv mice [2]; male 129S6/SvEv, (R,S)-ketamine 30, prucalopride 3 or 10, PF-04995274 3 or 10 mg/kg): comparable levels of immobility
immobility time, FST day 2 vs saline (129S6/SvEv mice [2]; male 129S6/SvEv, single injection 1 week before CFC, 3 mg/kg): decreased immobility time
average EPSC amplitude vs saline (CA3 pyramidal cells): no differences
large AMPA receptor-mediated bursts of EPSCs (CA3 pyramidal cells): not present
number of EPSCs vs saline (CA3 pyramidal cells): no differences
Affinity (pKi) (5-HT4R): 8.1-8.6
affinity for the hERG channels [3]: no affinity
